Test results taken from patent publication US6445486B1, “Electroactive materials and beneficial agents having a solubilizing moiety” (Gentex Corporation, priority 1999, dated 2002).
Values after ≈ are worked out from the molar mass of the structure shown.

Tests used:
[1] = Solubility at saturation in the solvent of interest, calculated from UV-VIS spectra of saturated solutions; conditions: for Solubility in propylene carbonate: saturated solution in propylene carbonate, ambient temperature; for solubility: propylene carbonate, organic solvent or mixture, thermodynamic from solid
physchem = conditions: organic solvent or mixture, thermodynamic from solid

Row | Compound | Solubility in propylene carbonate [1] [mM] | solubility [1] [mM] | further results
1 | 1-Triethylammonium-6-(tetra-t-butylferrocenyl)hexane BF4 | 514.4 |  | 
2 | C[N+]1(CCN2c3ccccc3N(c3ccccc3)c3ccccc32)CCCCC1.F[P-](F)(F)(F)(F)F [1-Methyl-1-[2-(10-phenyl-10H-phenazin-5-yl)-ethyl]-piperidinium hexafluorophosphate] |  |  | solubility (physchem): 500 mM
3 | Cc1ccc2c(c1)N(C)c1ccc(C)cc1N2C [2,5,7,10-Tetramethyl-5,10-dihydrophenazine, reference compound] |  | 55 (≈ 13100 µg/mL) | 
4 | CC[N+](CC)(CC)CCN1c2ccc(C)cc2N(CC[N+](CC)(CC)CC)c2ccc(C)cc21.F[B-](F)(F)F.F[B-](F)(F)F [2,7-Dimethyl-5,10-bis-2-(triethylammonium)ethylphenazine [BF4]2] | 250 |  | 
5 | CC[N+](CC)(CC)CCN1c2ccccc2N(CC[N+](CC)(CC)CC)c2ccccc21.F[B-](F)(F)F.F[B-](F)(F)F [5,10-Bis-2-(triethylammonium)ethylphenazine [BF4]2] | 200 |  | 
6 | CN1c2ccccc2N(C)c2ccccc21 [5,10-Dihydro-5,10-dimethylphenazine, reference compound] |  | 110 (≈ 23100 µg/mL) | 
7 | c1ccc(N2c3ccccc3N(CCN3CCCCC3)c3ccccc32)cc1 [5-Phenyl-10-(2-piperidin-1-yl-ethyl)-5,10-dihydrophenazine, reference compound] |  | 5 (≈ 1850 µg/mL) | 
8 | F[B-](F)(F)F.F[B-](F)(F)F.N#Cc1ccc(-[n+]2ccc(-c3cc[n+](CCC[c-]4cccc4)cc3)cc2)cc1.[Fe+2].c1cc[cH-]c1 [Ferrocenepropyl-p-cyanophenylviologen tetrafluoroborate] | 276.0 |  | 
9 | CCn1c(=NN=c2sc3ccccc3n2CC)sc2ccccc21 [N,N′-Bis-(3-ethyl-3H-benzothiazol-2-ylidene)-hydrazine, reference compound] |  | 12 (≈ 4250 µg/mL) | 
10 | CC[N+](CC)(CC)CCCCn1c(=NN=c2sc3ccccc3n2C)sc2ccccc21.F[B-](F)(F)F [triethyl-(4-{2-[(3-methyl-3H-benzothiazol-2-ylidene)-hydrazono]-benzothiazol-3-yl}-butyl)-ammonium tetrafluoroborate] |  | 47 | 
